Reference: patent US10682359B2, “Inhibitors of glucose kinases, along with methods of their formation and use” (University of South Carolina, priority 2017, dated 2020)
Like-named read-outs stand apart in the source and are kept apart here.

Assays:
[1] = test system: T. cruzi infective form (amastigotes and trypomastigotes) (Tulahuen strain) in NIH-3T3 fibroblasts; assay: T. cruzi viability assay in NIH-3T3 fibroblasts; conditions: for viability at 80 µM / EC50: Trypanosoma cruzi, TULAHUEN, NIH3T3; for Trypanocidal activity class: class by % viability at 80 μM; for in vitro T. cruzi EC50 compared with benznidazole: infective form co-cultured in NIH-3T3 fibroblasts
[2] = target: T1, Trypanosoma cruzi glucokinase (TcGlcK) (Trypanosoma cruzi, UniProt Q4E4E1); assay: TcGlcK-HsΔG6PDH-diaphorase coupled assay, IC50 determination; type: biochemical
T1 construct: made in house
T1 sequence (Q4E4E1 1-376): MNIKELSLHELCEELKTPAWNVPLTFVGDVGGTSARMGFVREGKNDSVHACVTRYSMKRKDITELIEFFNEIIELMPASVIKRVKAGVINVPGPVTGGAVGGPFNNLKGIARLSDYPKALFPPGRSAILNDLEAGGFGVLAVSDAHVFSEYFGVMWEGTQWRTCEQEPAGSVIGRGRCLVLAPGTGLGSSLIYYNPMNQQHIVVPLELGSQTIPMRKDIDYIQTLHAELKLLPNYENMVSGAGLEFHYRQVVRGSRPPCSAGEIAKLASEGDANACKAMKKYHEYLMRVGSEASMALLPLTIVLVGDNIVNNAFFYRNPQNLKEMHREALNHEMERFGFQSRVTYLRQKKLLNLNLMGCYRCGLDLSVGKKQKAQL
Experimental: The TcGlcK assay was performed through its linking with the HsΔG6PDH-diaphorase enzyme-coupled assay system as schematically illustrated in FIG. 1. All of the compounds were tested in quadruplicate using the JANUS-MDT liquid handler equipped with a 384-tip head that was used to transfer 22 μL of a reagent mix [130 U/mL HsΔG6PDH, 100 mM NADP+, 1 kU/mL diaphorase, 10 mM resazurin, and 19 μM TcGlcK in a reaction buffer (see below)], 0.5 μL of 1 mM compounds in 100% DMSO (from the daughter plate, see above), and 2.5 μL of a substrate mix [4 mM D-glucose and 6 mM ATP in a reaction buffer] to a 384-well plate (total volume per well was 25 μL). The reaction buffer was 0.1 M triethanolamine (pH 8.5), 8.0 mM MgCl2, and 0.01% (v/v) Triton X-100. The final assay concentrations (FACs) were 0.5 U/mL HsΔG6PDH, 100 μM NADP+, 1 U/mL diaphorase, 20 μM resazurin, 2.5 nM TcGlcK, 20 μM compounds (from the daughter plate, see above), 0.4 mM D-glucose, 0.6 mM ATP, 0.1 M triethanolamine (pH 8.5), 8 mM MgCl2, and 0.01% (v/v) Triton X-100. […] The assay was carried out using 384-well, black, v-bottom microplates (Greiner Bio-One) with a final volume of 25 μL per well. Pipetting steps were performed with a liquid handler having a 384-tip head, JANUS-MDT from Perkin Elmer (Waltham, Mass.). Compounds that gave rise to TcGlcK enzyme activity in the presence of 20 μM compound (EA20) that results in less than 65%) were categorized as unconfirmed hits to proceed as candidates. The methodology is schematically illustrated in FIG. 2.
Determination of the IC50 values was performed by the TcGlcK—HsΔG6PDH—diaphorase coupled assay, in which reaction velocities were obtained at various concentrations of inhibitors. In 96-well plates, solutions of the inhibitors were prepared by serial dilution. Briefly, column 1 served as a control having an inhibitor concentration of zero; however, columns 2 through 12 on a given row had 11 different inhibitor concentrations from a serial dilution. Using the JANUS-MDT liquid handler with a 96-tip head, assay reactions were carried out in quadruplicate in a 384-well plate and the following components were transferred per well: 44 μL of a reagent mix [130 U/mL HsΔG6PDH, 100 mM NADP^+, 1 kU/mL diaphorase, 10 mM resazurin, and 19 μM TcGlcK in a reaction buffer (0.1 M triethanolamine (pH 8.5), 8.0 mM MgCl2, and 0.01% (v/v) Triton X-100)], 1 uL of 1 mM compound solutions in 100% DMSO, and 5 μL of a substrate mix [4 mM D-glucose and 6 mM ATP in the same reaction buffer]. The Envision microplate reader (PerkinElmer) was used to monitor the formation of resorufin in the fluorescence mode (λex=530 nm; λem=615 nm). Reaction velocities were measured and normalized by the controls. Values of IC50 were calculated using the GraphPad Prism 6.0 software from nonlinear regression of the data.

[3] = TcGlcK - inhibitor IC50, enzymatic coupled assay, read-out: IC50

| Compound | viability at 80 µM [1] | further results |
| --- | --- | --- |
| Cc1cc2c(c(O)c1-c1c(C)cc3c(c1O)/C(=C/Nc1ccc(Cc4ccc(N)cc4)cc1)C(=O)C(O)=C3C(C)C)/C(=C/Nc1ccc(Cc3ccc(N)cc3)cc1)C(=O)C(O)=C2C(C)C [Compound 6d] | 63.3 ± 0.4% | IC50 [2, 3]: 61.6 µM |
| CN1C(=O)C(=Cc2ccc(N(C)C)cc2)C(=O)N(C)C1=O [Compound 2c] | 79 ± 4% | IC50 [2]: 5.5 µM |
| COc1ccc(S(=O)(=O)Nc2cccc(Br)c2)c(Cl)c1Cl [Compound 1a] | 0% | EC50 [1]: 13.3 ± 0.3 µM; Trypanocidal activity class [1]: active; IC50 [2, 3]: 7.2 µM |
| COc1ccc(NS(=O)(=O)c2ccc(Cl)c(C)c2Cl)cc1 [Compound 1d] | 0% |  |
| Nc1c(C(=O)c2cccc([N+](=O)O)c2)sc2nc(-c3cccnc3)ccc12 [Compound 9] | 52.7 ± 7.9% |  |
| CCOc1ccc([C@@H]2Oc3c(Cl)cc(Cl)cc3C=C2[N+](=O)[O-])cc1OCC [Compound 4a] | 0% | EC50 [1]: 2.98 ± 0.227 µM; Trypanocidal activity class [1]: active; in vitro T. cruzi EC50 compared with benznidazole [1]: very similar in vitro T. cruzi EC50 values to that of benznidazole; IC50 [2, 3]: 4.8 µM |
| COc1ccc(S(=O)(=O)Nc2ccc3ccccc3c2)cc1Cl [Compound 1f] | 0% |  |
| O=S(=O)(Nc1ccc(O)cc1)c1cc(Cl)ccc1Cl [Compound 1m] | 0.6 ± 2.9% |  |
| COc1ccc(S(=O)(=O)Nc2ccc(Br)cc2F)cc1Cl [Compound 1g] | 0% |  |
| O=C1C(=Cc2ccco2)C(=O)N(c2ccccc2)C(=O)N1c1ccccc1 [Compound 2a] | 66.5 ± 22.3% | IC50 [2]: 0.6 µM |
| Cc1cc2c(c(O)c1-c1c(C)cc3c(c1O)C(=CNc1ccc(S(=O)(=O)NC(=N)N)cc1)C(=O)C(O)=C3C(C)C)C(=CNc1ccc(S(=O)(=O)NC(=N)N)cc1)C(=O)C(O)=C2C(C)C [Compound 6a] | 0% | EC50 [1]: 8.62 ± 0.493 µM; Trypanocidal activity class [1]: active; IC50 [2, 3]: 13.2 µM |
| COc1cc(S(=O)(=O)Nc2cccc(Cl)c2C)c(C)cc1C [Compound 1c] | 0% |  |
| N#Cc1ccc(-c2cccnc2)nc1SCC(=O)O [Compound 11] | 86.5 ± 0.9% |  |
| O=C1NC(=O)C(=Cc2ccc(Br)s2)C(=O)N1 [Compound 2f] | 74.2 ± 5.3% | IC50 [2]: 2.4 µM |
| COc1ccc(S(=O)(=O)Nc2ccc(F)c(F)c2)cc1I [Compound 1e] | 0% |  |
| COc1ccc(S(=O)(=O)Nc2cccc(SC)c2)cc1F [Compound 1b] | 0% |  |
| O=C(O)C1Nc2c(I)cccc2C2C=CCC12 (stereo not drawn) [Compound 8] | 44.3 ± 5.1% |  |
| O=[N+]([O-])C1=Cc2c(ccc3ccccc23)O[C@H]1c1ccc2c(c1)OCO2 [Compound 4e] | 0% |  |
| Cc1cc2c(c(O)c1-c1c(C)cc3c(c1O)/C(=C/Nc1c(O)cc(S(=O)(=O)O)c4ccccc14)C(=O)C(O)=C3C(C)C)/C(=C/Nc1c(O)ccc3c(S(=O)(=O)O)cccc13)C(=O)C(O)=C2C(C)C [Compound 6c] | 20.4 ± 10.3% | IC50 [2, 3]: 30.2 µM |
| COc1ccc(S(=O)(=O)Nc2ccccc2)cc1F [Compound 1l] | 34.6 ± 4.3% |  |

| Compound | viability at 80 µM [1] | further results |
| --- | --- | --- |
| COc1ccc(Br)cc1/C=C1/C(=O)NC(=O)N(CCC2=CCCCC2)C1=O [Compound 2d] | 88.7 ± 15.1% | IC50 [2]: 13.7 µM |
| Cc1nn(-c2ccccc2)c2c1[C@@H](c1ccc(F)cc1)C(C#N)=C(N)O2 [Compound 5b] | 87.1 ± 3.3% | IC50 [2, 3]: 17.1 µM |
| CCOc1ccc([C@@H]2Oc3ccccc3C=C2[N+](=O)[O-])cc1OCC [Compound 4d] | 0% | IC50 [2, 3]: 69.1 µM |
| COc1ccc([C@@H]2Oc3ccccc3C=C2[N+](=O)[O-])cc1OC [Compound 4c] | 0% | IC50 [2, 3]: 53.2 µM |
| CCOc1ccc([C@@H]2Oc3ccc(Br)cc3C=C2[N+](=O)[O-])cc1OC [Compound 4b] | 0% | EC50 [1]: 2.17 ± 0.045 µM; Trypanocidal activity class [1]: active; in vitro T. cruzi EC50 compared with benznidazole [1]: very similar in vitro T. cruzi EC50 values to that of benznidazole; IC50 [2, 3]: 6.5 µM |
| Cc1ccc(-n2nc(C)c3c2OC(N)=C(C#N)[C@H]3c2ccoc2)cc1 [Compound 5c] | 80.6 ± 3.9% |  |
| Cc1cc(N2CCOCC2)ccc1/C=C1/C(=O)NC(=O)N(c2ccc3c(c2)OCO3)C1=O [Compound 2b] | 57 ± 2.8% | IC50 [2]: 1.1 µM |
| CCOc1ccc(S(=O)(=O)Nc2c(F)cccc2F)cc1Cl [Compound 1i] | 4.9 ± 4.7% |  |
| O=C1NC(=O)C(=Cc2ccc(N3CCOCC3)cc2)C(=O)N1 [Compound 2e] | 88 ± 9.4% | IC50 [2]: 1.7 µM |
| CCOc1ccc(S(=O)(=O)Nc2cccc(Cl)c2C)cc1C [Compound 1j] | 0% |  |
| COc1ccc(Br)cc1[C@H]1C(C#N)=C(N)Oc2c1c(C)nn2-c1ccccc1 [Compound 5a] | 0% | IC50 [2, 3]: 18.8 µM |
| c1ccc([C@@H]2CCCN2)nc1 [Compound 7] | 84.3 ± 0.5% |  |
| O=C1NC(=O)C(=Cc2ccc3c(c2)OCO3)C(=O)N1 [Compound 2h] | 81.2 ± 13.7% | IC50 [2]: 8.7 µM |
| Cc1nn(-c2cccc(Cl)c2)c2c1[C@@H](c1cc([N+](=O)[O-])ccc1Cl)C(C#N)=C(N)O2 [Compound 5d] | 0% |  |
| O=C1NC(=O)C(=Cc2ccc(O)c(O)c2)C(=O)N1 [Compound 2g] | 62.8 ± 11.6% | IC50 [2]: 4.2 µM |
| COc1ccc(C(=O)Nc2sc3c(c2C(N)=O)CCCCC3)cc1OC [Compound 10] | 50.5 ± 3.4% |  |
| COc1ccc(F)cc1S(=O)(=O)Nc1ccc(Cl)cc1 [Compound 1n] | 2.4 ± 7.4% |  |
| COc1ccc(S(=O)(=O)Nc2cc(Cl)ccc2Cl)c(C)c1C [Compound 1k] | 0% |  |
| Cc1cc2c(c(O)c1-c1c(C)cc3c(c1O)/C(=C/Nc1cccc4c(N)cccc14)C(=O)C(O)=C3C(C)C)/C(=C/Nc1cccc3c(N)cccc13)C(=O)C(O)=C2C(C)C [Compound 6b] | 1.7 ± 2.7% | IC50 [2, 3]: 16.5 µM |
| CCOc1cc(S(=O)(=O)Nc2ccc(Cl)cc2)ccc1F [Compound 1h] | 0% |  |
